# Measured values: patent US6809083B1, “Use of N-substituted-1, 5-dideoxy-1, 5-imino-D-glucitol compounds for treating hepatitis virus infections” (priority 1998, dated 2004)
# What was measured:
# [1] = test system: Hepatitis B Virus; experiment: Hepatitis B virus secretion from chronically HBV secreting HepG2.2.15 cells (preS1 immunoprecipitation of virions, PCR of viral DNA); assay type: cell-based; conditions: 3 days incubation
# Description: (§1) The anti-hepatitis B virus activity and effect on cell viability of a number of different N-substituted-1,5-dideoxy-1,5-imino-D-glucitol compounds were assessed using an in vitro assay employing chronically hepatitis B virus secreting HepG2.2.15 cells. The method employed was essentially that described in Block et al. (1994) Proc. Natl. Acad. Sci. USA 91:2235-2239.
# [2] = test system: HepG2.2.15 cells; experiment: Viability of HepG2.2.15 cells, trypan blue exclusion; assay type: cell-based; conditions: [200] and [1000]; trypan blue staining not performed
# Description: as §1
# [3] = test system: Hepatitis B Virus; experiment: IC-90 of N-nonyl-DNJ (T. Block and G. Jacob, unpublished observation); assay type: cell-based
# Description: The anti-hepatitis B virus effect of (−)-2′-deoxy-3′-thiocytidine-5′-triphosphate (3TC) alone and in combination with N-nonyl-DNJ was determined according to Korba ((1996) Antiviral Research 29(1):49-51), using the “combostat” strategy (Comstat Program, Combostat Corp., Duluth, Minn.). The combostat method involves serially diluting the IC-90 of each compound. The IC-90 of N-nonyl-DNJ has been determined to be between 4 and 10 μg/ml (T. Block and G. Jacob, unpublished observation). The accepted IC-90 for 3TC in HepG 2.2.15 (2.2.15) cells is 300 nM to 500 nM (Doong et al. (1991) Proc. Natl. Acad. Sci. USA 88:8495-8499).
# [4] = test system: woodchuck hepatitis virus (WHV); experiment: Woodchuck model, N-nonyl-DNJ monotherapy, BID oral dosing for 4 weeks; total HBV DNA and IPDNA by quantitative PCR; assay type: in vivo
# Source text: In order to evaluate the efficacy of N-nonyl-DNJ in combination with 3TC (or other nucleoside or nucleotide analogs) against Hepatitis B virus in a woodchuck animal model, an monotherapy experiment using N-nonyl-DNJ alone was first conducted. This was necessary to determine if N-nonyl-DNJ has any anti-HBV effect in the woodchuck and, if N-nonyl-DNJ has a beneficial effect, to design a combination study based on the dose-response relationship of this drug alone.
# Therefore, five groups of four animals each (all groups had both sexes, all but the control had two of each sex) were assigned to 0, 12.5, 25, 50, and 100 mg/kg/day with BID oral dosing. These were lab-reared wild animals. All animals were infected with woodchuck hepatitis virus (WHV) as neonates, and had been tested positive on serological tests for WHV surface antigen. Blood samples were drawn one week prior to dosing (−1 week), immediately before dosing (0 weeks), weekly during dosing (1, 2, 3, and 4 weeks), and after the end of dosing (5, 6, 8, and 10 weeks).
# There are two measures of drug efficacy: reduction in total HBV DNA (measured by quantitative PCR), and reduction in HBV DNA from capsids with intact surface glycoproteins, which is the active form of the virus (measured by an ELISA-like immune precipitation assay followed by quantitative PCR).
# Before models are fitted to the data, a log transform was applied because: 1) the variation in IPDNA increases with increasing IPDNA values; the log transformation gives values with a nearly constant variation, and 2) it is expected that drug effects will appear as a constant multiplier of the IPDNA level. Because there are zero values of IPDNA, a small value (about 1/2 of the smallest non-zero value) was added to all values before the log transform.
# Two approaches were used to model the changes in slope to week with dose of N-nonyl-DNJ: a linear modeling approach and a nonlinear model. Both approaches assume that the (linear) rate of change of the Log(IPDNA) measure over the dosing period is the “right” measure to reflect the effect of the drug on the virus. Both approaches are fit in stages, and the first stage is common to both approaches. First, a simple straight line regression model is fit using weeks 0-4 to predict log(IPDNA+10) separately for each animal by run combination. In the second stage, the response variable is the slope fitted in the first stage.
# For the linear approach, a model is fit with slope to week as the response where run is considered a block, dose has a significant effect (almost all of this effect is due to a slope to dose), and the relevant error for testing the effect of dose is the variation among animals treated alike (after the adjustment for the runs as blocks). This is similar to using the calibration data within each run to first adjust each run's data to a common virus DNA concentration; the difference is that here the data from the woodchucks are used for the run adjustment rather than only the calibration data.
# For the nonlinear approach, a four parameter logistic model is fit with the slope to week as the response and the dose as the predictor. Again, run is considered a block, but because no run has all weeks, it is not possible to fully reflect the blocking in the nonlinear approach. […] The average maximum slope observed was 2.71 additional Log(IPDNA μg/mL)/week, or an increase of about 150%/week, the average minimum slope observed with N-nonyl-DNJ is 0.31 fewer Log(IPDNA μg/mL)/week), or about a decrease of about 25%/week. The slopes, the fitted model, the parameter estimates from the model, and the approximate standard errors for these parameters are all shown in FIG. 3. […] Whether in woodchucks or humans, the effective dose of both the N-alkyl-DNJ and nucleoside or nucleotide antiviral agent administered in combination therewith can be administered in two equal daily subdoses (i.e., B.I.D.).
# [5] = concentration [200] (unit not given)
# [6] = concentration [1000] (unit not given)
SMILES,"Relative amount of HBV secreted, as a % of control [1, 5]","Relative amount of HBV secreted, as a % of control [1, 6]",Appearance of cells by gross microscopic examination [2],IC90 [3] [µg/mL],"effect on total HBV DNA measurements ([4]; woodchuck, all dose levels, pre-dose and dosed portions of the study)","average minimum slope observed ([4]; woodchuck, weeks 0-4)","decrease of IPDNA corresponding to average minimum slope ([4]; woodchuck, weeks 0-4)","increase of IPDNA corresponding to average maximum slope ([4]; woodchuck, weeks 0-4)","average maximum slope observed ([4]; woodchuck, weeks 0-4, upper end of dose-response model)","approximate effective monotherapy dose ([4]; woodchucks, oral)"
"CCCCN1C[C@H](O)[C@@H](O)[C@H](O)[C@H]1CO [NBDNJ, N-(n-butyl-)-1,5-dideoxy-1,5-imino-D-glucitol, reference compound]",37.0 +/− 13 (n = 15) % of control,3.2 +/− 5 (n = 15) % of control,,,,,,,,
"CCC(CC)CN1C[C@H](O)[C@@H](O)[C@H](O)[C@H]1CO [Compound 3, N-(2-ethylbutyl)-1,5-dideoxy-1,5-imino-D-glucitol]",45.0 +/− 30 (n = 3) % of control,5.0 +/− 20 (n = 3) % of control,"^5Although trypan blue viability staining was not performed, cells appeared unremarkable (healthy) by gross microscopic examination.",,,,,,,
"CCCCCCCCCN1C[C@H](O)[C@@H](O)[C@H](O)[C@H]1CO [Compound 1, N-(n-nonyl)-1,5-dideoxy-1,5-imino-D-glucitol]",,,,4 to 10,no effect,0.31 fewer Log(IPDNA μg/mL)/week,about 25 %/week,about 150 %/week,2.71 additional Log(IPDNA μg/mL)/week,about 16 mg/kg/day
